{"source": "patent US12616759B2", "about": "“Uses of labeled HSP90 inhibitors” (Sloan-Kettering Institute for Cancer Research, priority 2011, dated 2026)", "key": {"[1]": {"tested_on": "breast cancer tumor specimens", "experiment": "ex vivo fresh tissue sections of breast cancer patient tumors, apoptosis", "format": "cell-based, human", "text": "Test ex vivo the sensitivity of BC samples to PU-H71.\nEx vivo sensitivity examination: Immediately following surgical removal of the mastectomy specimen the tissue is transported to the Tissue Procurement Services (TPS) area of the Pathology suite. Once the lesion is located, tissue is harvested under sterile conditions. The specimen size removed for evaluation is typically 5-10 mm×5-10 mm. Every effort is made to sample the most viable area. Distant from the lesion, a specimen of equivalent size is removed representative of normal breast epithelial tissue. Both specimens are placed in minimal essential media (MEM) with 1% penicillin/streptomycin. A small portion of the lesion and the entire piece of normal breast epithelial tissue undergo a “snap” freeze for future molecular evaluation by WB. The remaining portion of the lesion (mastectomy) is processed for pathological evaluation. For every lesion pathology provides IHC for receptor status, proliferation markers, epithelial markers and one hematoxylin/eosin (H&E) stained slide accompanied by 10 unstained to be further assessed for non-standard biomarkers (e.g. pAKT, BclxL, HSP90 and Hsp70).\nFrom preliminary analyses we have learned that fresh tissue slicing provides a quick and more efficient ex vivo method for HSP90 inhibition evaluation than primary cell isolation. In addition, it preserves the cancer cells in the endogenous environment of the surrounding tissue. This is important since the interaction between stromal cells and tumor cells is known to play a major role in cancer growth and progression. In this method, the tissue (i.e. lesion) is placed in a plastic mold and embedded in 6% agarose. The agarose-embedded tissue is then mounted on the stage of the Vibratome that is submersed in a chilled reservoir (for tissue preservation) containing MEM with 1% penicillin/streptomycin. The tissue is then sliced using metal blades producing serial sections of the lesion that are 200 μm thick. Each section (minus the surrounding agarose-embedding media) is immediately placed in a 24-well tissue culture plate containing MEM with 1% penicillin/streptomycin. From a 5 mm×5 mm piece of tissue approximately 25 sections are produced. This allows for replicate analyses of tissue sections treated with a minimum of 4 doses of the HSP90 inhibitor and one with vehicle only. Replicates can be assayed by both IHC as well as viability assays (automatic plate reader or cytospin preparation) once tissue section undergoes enzymatic dissociation by brief exposure to dispase.\nTo date, forty-two specimens encompassing all BC subtypes have been acquired. Out of these, nine were of receptor status negative. […] Treatment of triple negative infiltrating ductal carcinoma (IDC) with PU-H71 attained, in a dose-dependent manner, apoptosis of both the primary tumors and lymph node metastases."}, "[2]": {"tested_on": "Akt, onco-proteins in MDA-MB-468 tumors", "experiment": "pharmacodynamic Western blot of MDA-MB-468 tumors", "format": "in vivo, mice", "experimental": "Pharmacodynamic analyses. For protein analysis, tumors were homogenized in SDS lysis buffer (50 mM Tris, pH 7.4, 2% SDS) and subjected to Western blot analysis. Protein concentrations were determined using the BCA kit (Pierce) according to the manufacturer's instructions. Protein lysates (20-100 μg) were electrophoretically resolved by SDS/PAGE, transferred to nitrocellulose membrane, and probed with the indicated primary antibodies: Anti-Hsp90 from mouse (1:500, SPA-830; Stressgen), anti-Akt from rabbit (1:500, 9272; Cell Signaling), anti-phospho-Akt (Ser 473) from rabbit (1:500, 9271S; Cell Signaling), anti-PARP (p85 fragment) from rabbit (1:250, G7341; Promega). Membranes were then incubated with a 1:5,000 dilution of a peroxidase-conjugated corresponding secondary antibody. Equal loading of the protein samples was confirmed by parallel Western blots for β-actin (1:5,000, ab8227-50; Abcam). Detection was performed using the ECL Enhanced Chemiluminescence Detection System (Amersham Biosciences) according to the manufacturer's instructions."}, "AML cell lines": {"tested_on": "AML cell lines", "experiment": "apoptosis in AML cell lines, acridine orange/ethidium bromide", "format": "cell-based, human", "experimental": "Apoptosis Assay: Cells were treated for 24, 48 or 72 h with vehicle (DMSO) or inhibitors as indicated. Following staining with Acridine Orange and Ethidium Bromide (1:1 mix of 100 µg/ml), cells were visualized with a fluorescent microscope (Zeiss Axiovert 40 CFL) and counted. Percentage of apoptotic cells was determined from 200-300 cells counted in each group. The percentage of apoptotic cells was calculated as: % Apoptotic cells=(total number of cells with apoptotic nuclei/total number of cells counted)×100."}, "circulating tumor cells": {"tested_on": "circulating tumor cells", "experiment": "number of circulating tumor cells in blood of patient after PU-H71", "format": "in vivo, human", "conditions": "24 h after 20 mg/m2", "text": "Circulating tumor cells (CTCs) are cells that have detached from a primary tumor and circulate in the bloodstream. CTCs may constitute seeds for subsequent growth of additional tumors (metastasis) in different tissues."}, "HSP90": {"tested_on": "HSP90", "format": "binding"}, "[3]": {"conditions": "several HER2+, triple-negative and ER+ breast cancers"}}}
{"smiles": "CC(C)NCCCn1c(Sc2cc3c(cc2I)OCO3)nc2c(N)ncnc21", "note": "[PU-H71]", "values": [{"measurement": "effect on normal and benign tissue", "setting": "[1]; 48 hour exposure", "result": "remained unaltered"}, {"measurement": "apoptosis", "setting": "[1]; TNBC partly resistant group, 1-2.5 uM", "result": "~50", "unit": "%"}, {"measurement": "apoptosis", "setting": "[1]; TNBC sensitive group, 1 uM", "result": 100, "unit": "%"}, {"measurement": "apoptosis", "setting": "[1]; TNBC very sensitive group, 0.5 uM", "result": 100, "unit": "%"}, {"measurement": "apoptosis", "setting": "[1]; resistant, PT #14", "result": "no apoptosis noted at any of the tested concentrations"}, {"measurement": "concentration inducing about 50% apoptosis", "setting": "[1]; [3]", "result": 0.05, "unit": "µM"}, {"measurement": "concentration inducing about 100% apoptosis", "setting": "[1]; [3]", "result": 0.5, "unit": "µM"}, {"measurement": "Akt degradation, decrease", "setting": "[2]; 5 mg/kg 3×week, 24 h after last dose", "result": 57, "unit": "%"}, {"measurement": "depletion of onco-proteins, level decrease", "setting": "[2]; 1×week schedule, 24 h and 96 h after last dose", "result": 95, "unit": "%"}, {"measurement": "cells undergoing apoptosis", "setting": "AML cell lines; HEL, 72 h", "result": 30, "unit": "%"}, {"measurement": "cells undergoing apoptosis", "setting": "AML cell lines; MOLM-13 and MO-91, 72 h", "result": "~100", "unit": "%"}, {"measurement": "cells undergoing apoptosis", "setting": "AML cell lines; SKNO-1 and Kasumi-1, 72 h", "result": "50-60%"}, {"measurement": "drop in the number of CTCs in the blood", "setting": "circulating tumor cells", "result": 6, "unit": "fold"}, {"measurement": "fraction of total cellular HSP90 bound", "setting": "HSP90", "result": "approximately 30%"}]}
